Molecular target: T1, NR2B receptor (Rattus norvegicus, UniProt P35439+Q00960)
T1 construct: NMDA, Polyamine source: Wistar Rat cerebral cortex; from tissue; host or cells: Wistar rat cerebral cortex
Assay: In vitro affinity measurement, [^3H]Ifenprodil radioligand binding (NMDA, Polyamine)
Conditions: Wistar Rat cerebral cortex; ligand [^3H]Ifenprodil; 2 hours at 4° C.; six concentrations tested in duplicate

T1 sequence (Q00960 27-1482, other chains not shown): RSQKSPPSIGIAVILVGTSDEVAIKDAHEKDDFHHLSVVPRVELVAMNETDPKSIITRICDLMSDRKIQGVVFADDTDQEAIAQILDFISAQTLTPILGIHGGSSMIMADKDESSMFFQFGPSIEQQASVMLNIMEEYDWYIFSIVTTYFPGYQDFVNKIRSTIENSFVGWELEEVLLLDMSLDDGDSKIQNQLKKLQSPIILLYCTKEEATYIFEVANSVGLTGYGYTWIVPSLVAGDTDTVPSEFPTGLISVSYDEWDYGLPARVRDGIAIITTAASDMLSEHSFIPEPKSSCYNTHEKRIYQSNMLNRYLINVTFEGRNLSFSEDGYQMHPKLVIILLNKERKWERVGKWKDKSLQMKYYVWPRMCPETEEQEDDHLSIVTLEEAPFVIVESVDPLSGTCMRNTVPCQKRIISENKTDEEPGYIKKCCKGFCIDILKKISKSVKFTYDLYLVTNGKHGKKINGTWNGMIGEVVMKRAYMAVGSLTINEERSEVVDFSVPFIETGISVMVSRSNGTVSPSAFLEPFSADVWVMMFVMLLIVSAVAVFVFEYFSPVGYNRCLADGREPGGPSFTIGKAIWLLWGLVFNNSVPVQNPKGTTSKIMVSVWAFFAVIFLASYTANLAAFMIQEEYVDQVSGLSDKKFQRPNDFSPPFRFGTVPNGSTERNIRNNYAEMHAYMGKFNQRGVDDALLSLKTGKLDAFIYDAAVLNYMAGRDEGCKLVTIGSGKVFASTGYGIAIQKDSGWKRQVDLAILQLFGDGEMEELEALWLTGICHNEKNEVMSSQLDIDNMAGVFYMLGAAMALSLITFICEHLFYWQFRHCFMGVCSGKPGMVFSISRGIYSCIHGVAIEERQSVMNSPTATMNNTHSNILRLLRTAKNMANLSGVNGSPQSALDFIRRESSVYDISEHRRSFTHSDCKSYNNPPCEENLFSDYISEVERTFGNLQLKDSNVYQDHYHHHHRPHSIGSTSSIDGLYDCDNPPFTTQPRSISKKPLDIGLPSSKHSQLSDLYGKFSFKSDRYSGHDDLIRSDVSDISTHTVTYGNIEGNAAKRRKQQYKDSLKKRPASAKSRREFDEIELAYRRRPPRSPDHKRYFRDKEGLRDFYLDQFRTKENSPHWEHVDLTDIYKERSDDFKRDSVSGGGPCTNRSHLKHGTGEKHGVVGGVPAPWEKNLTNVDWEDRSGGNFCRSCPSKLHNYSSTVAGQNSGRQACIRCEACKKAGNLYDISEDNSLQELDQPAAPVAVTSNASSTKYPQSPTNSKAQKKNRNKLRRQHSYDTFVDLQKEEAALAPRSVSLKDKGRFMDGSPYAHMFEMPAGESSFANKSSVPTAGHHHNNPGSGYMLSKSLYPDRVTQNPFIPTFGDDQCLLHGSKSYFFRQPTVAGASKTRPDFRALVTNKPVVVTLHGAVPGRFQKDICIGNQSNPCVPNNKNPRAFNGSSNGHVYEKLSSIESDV

SMILES	Ki [nM]
COc1cc(CNC(=N)c2ccc(OC(F)(F)F)cc2)cc(OC)c1 [EA4, N-(3,5-dimethoxybenzyl)-4-trifluoromethoxyphenyl amidine]	< 11
COc1ccccc1CNC(=N)c1ccc(I)cc1 [EA12, N-(2-methoxybenzyl)-4-iodophenyl amidine]	< 11
N=C(NCc1cccc(Cl)c1)c1ccc(I)cc1 [EA13, N-(3-chlorobenzyl)-4-iodophenyl amidine]	< 11
N=C(NCc1cc(Cl)cc(Cl)c1)c1ccc(I)cc1 [EA14, N-(3,5-dichlorobenzyl)-4-iodophenyl amidine]	< 2
N=C(NCc1cc(Cl)cc(OCCF)c1)c1ccc(OC(F)(F)F)cc1 [EA15, N-(3-(2-fluoroethoxy)-5-chlorobenzyl)-4-trifluoromethoxyphenyl amidine]	< 11

Next, values leading:

Ki [nM]	SMILES
< 11	COc1ccc(OC)c(CNC(=N)c2ccc(OC(F)(F)F)cc2)c1 [EA5, N-(2,5-dimethoxybenzyl)-4-trifluoromethoxyphenyl amidine]
< 2	COc1cccc(OC)c1CNC(=N)c1ccc(OC(F)(F)F)cc1 [EA6, N-(2,6-dimethoxybenzyl)-4-trifluoromethoxyphenyl amidine]
> 100	COc1cccc(CNC(=N)c2ccc(OC(F)(F)F)cc2)c1OC [EA7, N-(2,3-dimethoxybenzyl)-4-trifluoromethoxyphenyl amidine]
< 11	COc1cc(CNC(=N)c2ccc(OC(F)(F)F)cc2)c(OC)cc1Cl [EA8, N-(2,5-dimethoxy-4-chlorobenzyl)-4-trifluoromethoxyphenyl amidine]
< 2	COc1ccc(Cl)cc1CNC(=N)c1ccc(OC(F)(F)F)cc1 [EA9, N-(2-methoxy-5-chlorobenzyl)-4-trifluoromethoxyphenyl amidine]
< 2	COc1ccc(Br)cc1CNC(=N)c1ccc(OC(F)(F)F)cc1 [EA10, N-(2-methoxy-5-bromobenzyl)-4-trifluoromethoxyphenyl amidine]
< 11	COc1cc(Cl)cc(CNC(=N)c2ccc(OC(F)(F)F)cc2)c1 [EA11, N-(3-methoxy-5-chlorobenzyl)-4-trifluoromethoxyphenyl amidine]
< 11	N=C(NCc1cc(Br)ccc1OCCF)c1ccc(OC(F)(F)F)cc1 [EA16]
